Test results taken from EPA's CvTdb concentration-time database.

Tests used:
[1] = tested on: Rat; assay: concentration in adipose after dosing; conditions: 48 h; dosed: 2,3,7,8-Tetrachlorodibenzo-p-dioxin; 0.0001 mg/kg; oral; Female; Sprague-Dawley
[2] = tested on: Rat; assay: concentration in adipose (perirenal) after dosing; conditions: 480 h; dosed: 2,3,7,8-Tetrachlorodibenzo-p-dioxin; 0.0001 mg/kg; oral; Female; Sprague-Dawley
[3] = tested on: Rat; assay: concentration in adipose after dosing; conditions: 1680 h; dosed: 2,3,7,8-Tetrachlorodibenzo-p-dioxin; 0.0001 mg/kg; oral; Female; Sprague-Dawley
[4] = tested on: Rat; assay: concentration in liver after dosing; conditions: 24 h; dosed: 2,3,7,8-Tetrachlorodibenzo-p-dioxin; 0.0001 mg/kg; oral; Female; Sprague-Dawley
[5] = tested on: Rat; assay: concentration in adipose (perirenal) after dosing; conditions: 48 h; dosed: 2,3,7,8-Tetrachlorodibenzo-p-dioxin; 0.0001 mg/kg; oral; Female; Sprague-Dawley
[6] = tested on: Rat; assay: concentration in adipose (perirenal) after dosing; conditions: 960 h; dosed: 2,3,7,8-Tetrachlorodibenzo-p-dioxin; 0.0001 mg/kg; oral; Female; Sprague-Dawley
[7] = tested on: Rat; assay: concentration in adipose (perirenal) after dosing; conditions: 1680 h; dosed: 2,3,7,8-Tetrachlorodibenzo-p-dioxin; 0.0001 mg/kg; oral; Female; Sprague-Dawley
[8] = tested on: Rat; assay: concentration in adipose (perirenal) after dosing; conditions: 960 h; dosed: 2,3,7,8-Tetrachlorodibenzo-p-dioxin; 0.0001 mg/kg; oral; Female; Sprague-Dawley; remark: listed apart in the source
[9] = tested on: Rat; assay: concentration in adipose after dosing; conditions: 480 h; dosed: 2,3,7,8-Tetrachlorodibenzo-p-dioxin; 0.0001 mg/kg; oral; Female; Sprague-Dawley
[10] = tested on: Rat; assay: concentration in adipose after dosing; conditions: 48 h; dosed: 2,3,7,8-Tetrachlorodibenzo-p-dioxin; 0.0001 mg/kg; oral; Female; Sprague-Dawley; remark: listed apart in the source
[11] = tested on: Rat; assay: concentration in adipose (perirenal) after dosing; conditions: 48 h; dosed: 2,3,7,8-Tetrachlorodibenzo-p-dioxin; 0.00005 mg/kg; oral; Female; Sprague-Dawley
[12] = tested on: Rat; assay: concentration in adipose after dosing; conditions: 48 h; dosed: 2,3,7,8-Tetrachlorodibenzo-p-dioxin; 0.0001 mg/kg; oral; Female; Sprague-Dawley; remark: listed apart in the source
[13] = tested on: Rat; assay: concentration in plasma after dosing; conditions: dosed: 2,3,7,8-Tetrachlorodibenzo-p-dioxin, 0.0001 mg/kg, oral, Female, Sprague-Dawley
[14] = tested on: Rat; assay: concentration in adipose after dosing; conditions: 1680 h; dosed: 2,3,7,8-Tetrachlorodibenzo-p-dioxin; 0.0001 mg/kg; oral; Female; Sprague-Dawley; remark: listed apart in the source
[15] = tested on: Rat; assay: concentration in adipose (perirenal) after dosing; conditions: 48 h; dosed: 2,3,7,8-Tetrachlorodibenzo-p-dioxin; 0.0001 mg/kg; oral; Female; Sprague-Dawley; remark: listed apart in the source
[16] = tested on: Rat; assay: concentration in adipose after dosing; conditions: 960 h; dosed: 2,3,7,8-Tetrachlorodibenzo-p-dioxin; 0.0001 mg/kg; oral; Female; Sprague-Dawley
[17] = tested on: Rat; assay: concentration in adipose after dosing; conditions: 8 h; dosed: 2,3,7,8-Tetrachlorodibenzo-p-dioxin; 0.0001 mg/kg; oral; Female; Sprague-Dawley
[18] = tested on: Rat; assay: concentration in adipose (perirenal) after dosing; conditions: 2400 h; dosed: 2,3,7,8-Tetrachlorodibenzo-p-dioxin; 0.0001 mg/kg; oral; Female; Sprague-Dawley
[19] = tested on: Rat; assay: concentration in adipose (perirenal) after dosing; conditions: dosed: 2,3,7,8-Tetrachlorodibenzo-p-dioxin, oral, Female, Sprague-Dawley
[20] = tested on: Rat; assay: concentration in adipose after dosing; conditions: 960 h; dosed: 2,3,7,8-Tetrachlorodibenzo-p-dioxin; 0.00005 mg/kg; oral; Female; Sprague-Dawley
[21] = tested on: Rat; assay: concentration in adipose (perirenal) after dosing; conditions: 480 h; dosed: 2,3,7,8-Tetrachlorodibenzo-p-dioxin; 0.0001 mg/kg; oral; Female; Sprague-Dawley; remark: listed apart in the source
[22] = tested on: Rat; assay: concentration in adipose (perirenal) after dosing; conditions: 48 h; dosed: 2,3,7,8-Tetrachlorodibenzo-p-dioxin; 0.0001 mg/kg; oral; Female; Sprague-Dawley; remark: listed apart in the source
[23] = tested on: Rat; assay: concentration in adipose after dosing; conditions: dosed: 2,3,7,8-Tetrachlorodibenzo-p-dioxin, oral, Female, Sprague-Dawley
[24] = tested on: Rat; assay: concentration in liver after dosing; conditions: 24 h; dosed: 2,3,7,8-Tetrachlorodibenzo-p-dioxin; 0.00005 mg/kg; oral; Female; Sprague-Dawley
[25] = tested on: Rat; assay: concentration in adipose after dosing; conditions: 480 h; dosed: 2,3,7,8-Tetrachlorodibenzo-p-dioxin; 0.0001 mg/kg; oral; Female; Sprague-Dawley; remark: listed apart in the source
[26] = tested on: Rat; assay: concentration in liver after dosing; conditions: 24 h; dosed: 2,3,7,8-Tetrachlorodibenzo-p-dioxin; 0.0001 mg/kg; oral; Female; Sprague-Dawley; remark: listed apart in the source
[27] = tested on: Rat; assay: concentration in adipose after dosing; conditions: 960 h; dosed: 2,3,7,8-Tetrachlorodibenzo-p-dioxin; 0.0001 mg/kg; oral; Female; Sprague-Dawley; remark: listed apart in the source
[28] = tested on: Rat; assay: concentration in liver after dosing; conditions: 24 h; dosed: 2,3,7,8-Tetrachlorodibenzo-p-dioxin; 0.0001 mg/kg; oral; Female; Sprague-Dawley; remark: listed apart in the source
[29] = tested on: Rat; assay: concentration in adipose (perirenal) after dosing; conditions: 2400 h; dosed: 2,3,7,8-Tetrachlorodibenzo-p-dioxin; 0.0001 mg/kg; oral; Female; Sprague-Dawley; remark: listed apart in the source
[30] = tested on: Rat; assay: concentration in adipose (perirenal) after dosing; conditions: 1680 h; dosed: 2,3,7,8-Tetrachlorodibenzo-p-dioxin; 0.0001 mg/kg; oral; Female; Sprague-Dawley; remark: listed apart in the source
[31] = tested on: Rat; assay: concentration in adipose (perirenal) after dosing; conditions: 480 h; dosed: 2,3,7,8-Tetrachlorodibenzo-p-dioxin; 0.0001 mg/kg; oral; Female; Sprague-Dawley; remark: listed apart in the source
[32] = tested on: Rat; assay: concentration in adipose after dosing; conditions: 480 h; dosed: 2,3,7,8-Tetrachlorodibenzo-p-dioxin; 0.00005 mg/kg; oral; Female; Sprague-Dawley
[33] = tested on: Rat; assay: concentration in adipose (perirenal) after dosing; conditions: 2400 h; dosed: 2,3,7,8-Tetrachlorodibenzo-p-dioxin; 0.0001 mg/kg; oral; Female; Sprague-Dawley; remark: listed apart in the source
[34] = tested on: Rat; assay: concentration in adipose after dosing; conditions: 960 h; dosed: 2,3,7,8-Tetrachlorodibenzo-p-dioxin; 0.0001 mg/kg; oral; Female; Sprague-Dawley; remark: listed apart in the source
[35] = tested on: Rat; assay: concentration in adipose (perirenal) after dosing; conditions: 48 h; dosed: 2,3,7,8-Tetrachlorodibenzo-p-dioxin; 0.0001 mg/kg; oral; Female; Sprague-Dawley; remark: listed apart in the source
[36] = tested on: Rat; assay: concentration in lung after dosing; conditions: dosed: 2,3,7,8-Tetrachlorodibenzo-p-dioxin, oral, Female, Sprague-Dawley
[37] = tested on: Rat; assay: concentration in adipose (perirenal) after dosing; conditions: 48 h; dosed: 2,3,7,8-Tetrachlorodibenzo-p-dioxin; 0.0001 mg/kg; oral; Female; Sprague-Dawley; remark: listed apart in the source
[38] = tested on: Rat; assay: concentration in adipose (perirenal) after dosing; conditions: 960 h; dosed: 2,3,7,8-Tetrachlorodibenzo-p-dioxin; 0.0001 mg/kg; oral; Female; Sprague-Dawley; remark: listed apart in the source
[39] = tested on: Rat; assay: concentration in adipose after dosing; conditions: 48 h; dosed: 2,3,7,8-Tetrachlorodibenzo-p-dioxin; 0.0001 mg/kg; oral; Female; Sprague-Dawley; remark: listed apart in the source
[40] = tested on: Rat; assay: concentration in adipose after dosing; conditions: 480 h; dosed: 2,3,7,8-Tetrachlorodibenzo-p-dioxin; 0.0001 mg/kg; oral; Female; Sprague-Dawley; remark: listed apart in the source
[41] = tested on: Rat; assay: concentration in liver after dosing; conditions: dosed: 2,3,7,8-Tetrachlorodibenzo-p-dioxin, oral, Female, Sprague-Dawley
[42] = tested on: Rat; assay: concentration in adipose (perirenal) after dosing; conditions: 48 h; dosed: 2,3,7,8-Tetrachlorodibenzo-p-dioxin; 0.00005 mg/kg; oral; Female; Sprague-Dawley; remark: listed apart in the source
[43] = tested on: Rat; assay: concentration in liver after dosing; conditions: 24 h; dosed: 2,3,7,8-Tetrachlorodibenzo-p-dioxin; 0.0001 mg/kg; oral; Female; Sprague-Dawley; remark: listed apart in the source
[44] = tested on: Rat; assay: concentration in adipose after dosing; conditions: 2400 h; dosed: 2,3,7,8-Tetrachlorodibenzo-p-dioxin; 0.0001 mg/kg; oral; Female; Sprague-Dawley
[45] = tested on: Rat; assay: concentration in adipose after dosing; conditions: 1680 h; dosed: 2,3,7,8-Tetrachlorodibenzo-p-dioxin; 0.0001 mg/kg; oral; Female; Sprague-Dawley; remark: listed apart in the source
[46] = tested on: Rat; assay: concentration in adipose (perirenal) after dosing; conditions: 1680 h; dosed: 2,3,7,8-Tetrachlorodibenzo-p-dioxin; 0.0001 mg/kg; oral; Female; Sprague-Dawley; remark: listed apart in the source

Clc1cc2c(cc1Cl)Oc1cc(Cl)c(Cl)cc1O2 [2,3,7,8-Tetrachlorodibenzo-p-dioxin]
Conditions	concentration in adipose [pg/g]	concentration in liver [pg/g]
[1]	497	–
[2]	490	–
[3]	279	–
[4]	–	1200
[5]	402	–
[6]	305	–
[7]	213	–
[8]	298	–
[9]	422	–
[10]	397	–
[11]	148	–
[12]	374	–
[14]	152	–
[15]	469	–
[16]	294	–
[17]	260	–
[18]	218	–
[20]	116	–
[21]	483	–
[22]	260	–
[24]	–	515
[25]	372	–
[26]	–	1310
[27]	159	–
[28]	–	1450
[29]	271	–
[30]	212	–
[31]	384	–
[32]	95	–
[33]	106	–
[34]	294	–
[35]	407	–
[37]	379	–
[38]	264	–
[39]	292	–
[40]	537	–
[42]	236	–
[43]	–	1300
[44]	186	–
[45]	220	–
[46]	143	–

[13]
Conditions	concentration in plasma [ng/mL]
1.5 h	0.104
48 h	0.631
144 h	0.106
240 h	0.161
360 h	0.184

Conditions	concentration in adipose, [19] [pg/g]	concentration in adipose, [23] [pg/g]	concentration in liver, [41] [pg/g]	concentration in lung, [36] [pg/g]
8 h, 0.00005 mg/kg	–	120	–	–
8 h, 0.0001 mg/kg	135	218	–	–
24 h, 0.00005 mg/kg	–	–	472	–
24 h, 0.0001 mg/kg	–	–	1630	–
48 h, 0.00005 mg/kg	416	–	–	–
48 h, 0.0001 mg/kg	371	303	–	–
480 h, 0.00005 mg/kg	260	110	271	–
480 h, 0.0001 mg/kg	190	428	307	–
960 h, 0.00005 mg/kg	146	93	205	465
960 h, 0.0001 mg/kg	172	171	–	–
1680 h, 0.0001 mg/kg	103	134	288	201
2400 h, 0.00005 mg/kg	–	93	–	–
2400 h, 0.0001 mg/kg	112	156	–	–
